Like-named read-outs stand apart in the source and are kept apart here.

Data on 27 molecules can be found in patent publication US8633212B2, “Inhibitors of beta-secretase” (Vitae Pharmaceuticals, Inc., priority 2009, dated 2014).

Assay [1] has as its target H4 neuroglioma cell line stably expressing APP with the KM-NL Swedish mutation (H4-APPsw); soluble Amyloid Beta 1-40 (Aβ 1-40) (Homo sapiens (Human), UniProt P56817). Put plainly: BACE cell assay: soluble Aβ 1-40 in culture media of H4-APPsw cells (AlphaLISA/ELISA). It counts as cell-based. The settings on record: in vitro cell activity; H4-APPsw cells treated overnight, secreted Aβ 1-40 in culture media. On the procedure:
H4 neuroglioma cell line that stably expresses Amyloid Precursor Protein (APP) containing the KM-NL Swedish mutation (H4-APPsw) was generated. For the assay, cells are treated overnight in the presence of inhibitor and the culture media are subjected to ELISA analysis of soluble Amyloid Beta 1-40 (Aβ 1-40).
Generation and Maintenance of H4-APPsw Cell Line
H4 neuroglioma cell line was cultured in DMEM with 10% FBS and 1% penicillin/streptomycin (Culture Medium) at 37° C., 5% CO2. […] 24 hrs after transfection, the cells were replaced into three new plates (150 mm) in fresh Culture Medium with 250 ug/mL Zeocin. […] The levels of APPsw expression were analyzed by immunoblotting and the production of Aβ 1-40 was detected by ELISA of culture supernatants. The selected clones are maintained in Culture Medium with 250 μg/mL Zeocin and routinely split in 3-4 days to maintain 20-80% confluence.
Final Assay Conditions (96-Well Plate)
Split H4-APPsw cells in Culture Medium and culture overnight such that cells will be ˜80% confluent next morning.
Create Compound Dilution Plate.
After determining the desired final concentration of compound to be tested, create a 500× dilution plate. Add DMSO, but not inhibitor, to each well of Column 1. […] Add compounds of interest at 500× desired final concentration to wells A3-A10. […] Dilute contents of Row A 1:3 in Row B, then continue through Rows C-H.
Add 4 μL 5 mM control compound to Media Plate wells A1-D1 for determination of full inhibition.
With a multichannel pipettor, mix each well of Media Plate several times to insure homogeneity. […] Next, place Medium Plate and Cell Plate in the incubator.
Trypsinize and count H4-APPsw cells. Dilute cells 6×10^5 cells/mL in Culture Medium and remove Cell Plate from incubator. Vortex cells to homogeneity, then using a multichannel repeating pipettor, add 100 μL cell suspension to Cell Plate, adding cells from Row H to Row A. Place Cell Plate in incubator.
Change media in Cell Plate.
After 5 h, check Cell Plate by microscope to insure cells are attached. In culture hood, remove media from Cell Plate using multichannel repeating pipettor. Add 100 μl Culture Medium to each well. Remove Media Plate from incubator and mix with pipettor as previous. Add 100 μl from each well of Media Plate to corresponding well in Cell Plate. Place Cell Plate in incubator overnight.
Perform ELISA to determine levels of secreted Aβ 1-40.
After 16 h incubation, spin Cell Plate for 8 min at 1200 rpm. The primary reading of Aβ 1-40 levels is done using PerkinElmer AlphaLISA technology. Follow the manufacturer's protocol for performing AlphaLISA in a white ½ area Optiwell plate using Row 12 for peptide standard (1:2 dilutions, starting at 15 ng/ml). Data are acquired using PerkinElmer Fusion-Alpha FP-HT, Alpha protocol (Count Time 0.6s, Count Time Ratio 30%:70%).
Export data from Fusion using Columnar Report format into a separate file for each plate. Upload data into Activity Base using RIA-DOSE-RESPONSE protocol (Version 1). Data from at least eight doses were fitted to a four parameter logistical model using XLfit software to determine potency.

In assay [2] the target is truncated human beta-secretase (residues 1-458, His6-tagged at the C-terminus) (Homo sapiens (Human), UniProt P56817). Put plainly: BACE enzyme assay (fluorescence quench assay, Example 434A). It counts as biochemical. The settings on record: read-out: IC50.
Sequence of truncated human beta-secretase (residues 1-458, His6-tagged at the C-terminus) (P56817 22-458): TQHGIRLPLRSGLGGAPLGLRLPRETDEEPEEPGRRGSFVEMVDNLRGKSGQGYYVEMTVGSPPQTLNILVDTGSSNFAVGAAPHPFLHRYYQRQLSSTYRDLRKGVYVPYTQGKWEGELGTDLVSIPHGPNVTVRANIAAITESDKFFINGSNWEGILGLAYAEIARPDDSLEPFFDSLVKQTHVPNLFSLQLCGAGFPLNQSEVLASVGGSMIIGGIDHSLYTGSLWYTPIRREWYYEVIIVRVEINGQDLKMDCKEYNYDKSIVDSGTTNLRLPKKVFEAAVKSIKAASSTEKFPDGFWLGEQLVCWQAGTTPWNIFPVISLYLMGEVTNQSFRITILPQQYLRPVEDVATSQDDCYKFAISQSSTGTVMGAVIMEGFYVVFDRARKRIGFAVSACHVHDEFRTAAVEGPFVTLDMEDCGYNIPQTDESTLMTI
Where [3] appears, read: footnote a: protocols described in Example 434A.

Sequence of H4 neuroglioma cell line stably expressing APP with the KM-NL Swedish mutation (H4-APPsw); soluble Amyloid Beta 1-40 (Aβ 1-40) (P56817 46-501 limits assumed, change not shown): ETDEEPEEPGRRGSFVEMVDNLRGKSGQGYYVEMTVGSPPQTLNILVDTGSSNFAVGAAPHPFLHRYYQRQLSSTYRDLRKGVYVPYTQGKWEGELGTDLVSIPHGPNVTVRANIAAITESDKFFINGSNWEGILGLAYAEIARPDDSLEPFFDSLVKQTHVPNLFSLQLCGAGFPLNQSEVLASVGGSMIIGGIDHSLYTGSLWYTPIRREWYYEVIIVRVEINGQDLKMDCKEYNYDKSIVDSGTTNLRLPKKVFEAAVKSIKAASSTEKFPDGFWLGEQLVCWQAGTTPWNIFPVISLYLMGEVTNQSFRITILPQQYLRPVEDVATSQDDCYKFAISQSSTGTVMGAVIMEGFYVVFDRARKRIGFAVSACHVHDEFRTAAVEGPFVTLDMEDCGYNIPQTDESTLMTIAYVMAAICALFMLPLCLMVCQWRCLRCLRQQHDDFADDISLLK

Regarding `COC1CCC2(CC1)Cc1ccc(C#CC3CC3)cc1C21N=C(N)N(C)O1` (stereo not shown) [Compound 3], the half-maximal inhibitory concentration (IC50) in assay [1] was less than 0.1 µM; in assay [2] (setting [3]) it was 0.0045 µM.
Regarding `CN1OC2(N=C1N)c1cc(-c3cccc(C#N)c3)ccc1CC21CCc2cc(F)ccc2C1` (stereo not shown) [Compound 43], the half-maximal inhibitory concentration (IC50) in assay [1] is less than 5 µM; in assay [2] it was 0.178 µM.
In assay [1], `CN1C(=O)C2(N=C1N)c1cc(Br)ccc1CC21CCc2ccccc2CC1` (stereo not shown) [Compound 56] gave a half-inhibitory concentration (IC50) of less than 5 µM.
Turning to `CN1OC2(N=C1N)c1cc(-c3cccc(C#N)c3)ccc1CC21Cc2ccccc2C1` (stereo not shown) [Compound 40], the IC50 in assay [1] was less than 5 µM; in assay [2] (setting [3]), 0.16 µM.
Consider `CO[C@H]1CC[C@]2(CC1)Cc1ccc(-c3cccc(C#N)c3)cc1C21CC(=O)N(C)C(N)=N1` (stereo partly drawn) [Compound 58, 3-(2″-amino-1′″-methyl-6″-oxo-5″,6″-dihydro-1″H-spiro[spiro[2,3-dihydro-indene-2,1′-(trans-4-methoxycyclohexane)]-1,4′-pyrimidine]-6-yl)benzonitrile], for which the concentration for half-maximal inhibition (IC50) in assay [1] was less than 0.1 µM; in assay [2] it was 0.97 µM.
On to `CN1OC2(N=C1N)c1cc(-c3cccc(C#N)c3)ccc1CC21CC=C(F)CC1` (stereo not shown) [Compound 34], for which the values for the concentration for half-maximal inhibition (IC50) in assay [1] and in assay [2] (setting [3]) were less than 1 µM and 0.0933 µM, respectively.
In turn, `CN1OC2(N=C1N)c1cc(-c3cccc(C#N)c3)ccc1CC21C=CC(c2ccccc2)C1` (stereo not shown) [Compound 53] returned a 50% inhibitory concentration (IC50) in assay [1] of less than 50 µM.
For the molecule `COC1CCC2(CC1)Cc1ccc(-c3cc(C)cc(C)c3)cc1C21N=C(N)N(C)O1` (stereo not shown) [Compound 19], the 50% inhibitory concentration (IC50) in assay [1] is less than 0.5 µM; in assay [2] (setting [3]), 0.0146 µM.
For `COC1CCC2(CC1)Cc1ccc(-c3cc(F)cc(Cl)c3)cc1C21N=C(N)N(C)O1` (stereo not shown) [Compound 1] the same measures were less than 0.1 µM and 0.0026 µM.
`CN1OC2(N=C1N)c1cc(-c3cccc(C#N)c3)ccc1CC21C=CC(c2ccccc2)C1` (stereo not shown) [Compound 47]: the IC50 in assay [1] was less than 10 µM; in assay [2] (setting [3]), 0.295 µM.
As for `COC1CCC2(CC1)Cc1ccc(-c3cccnc3)cc1C21CC(=O)N(C)C(N)=N1` (stereo not drawn) [Compound 59, 2″-amino-1′″-methyl-6-(pyridin-3-yl)-1″H-spiro[spiro[2,3-dihydro-indene-2,1′-(trans-4-methoxycyclohexane)]-1,4′-pyrimidin]-6″(5″H)-one], the IC50 in assay [1] was less than 0.5 µM; in assay [2] it was 1.55 µM.
On to `CN1C(=O)C2(N=C1N)c1cc(-c3cc(F)cc(Cl)c3)ccc1CC21CCc2ccccc2CC1` (stereo not shown) [Compound 26], for which, in assay [1], the IC50 is less than 5 µM.
Turning to `CC1=C(C)CC2(CC1)Cc1ccc(-c3cccc(C#N)c3)cc1C21N=C(N)N(C)O1` (stereo not shown) [Compound 41], the half-inhibitory concentration (IC50) in assay [1] is less than 5 µM; in assay [2] (setting [3]) it was 0.161 µM.
On to `CN1OC2(N=C1N)c1cc(-c3cccc(C#N)c3)ccc1CC21CCCC1` (stereo not shown) [Compound 50], for which the IC50 in assay [1] is less than 1 µM; in assay [2] (setting [3]) it was 0.443 µM.
`CN1OC2(N=C1N)c1ccccc1CC21CCc2ccccc2CC1` (stereo not shown) [Compound 35] showed an IC50 in assay [1] of less than 1 µM.
`COC1CCC2(CC1)Cc1ccc(-c3cccc(C#N)c3)cc1C21N=C(N)N(C)O1` (stereo not shown) [Compound 25]: the half-maximal inhibitory concentration (IC50) was less than 0.1 µM in assay [1] and 0.0262 µM in assay [2] (setting [3]).
For `CN1OC2(N=C1N)c1cc(-c3cccc(C#N)c3)ccc1CC21CCc2c(F)cccc2C1` (stereo not shown) [Compound 54] the same measures were less than 5 µM and 0.618 µM.
For `CN1OC2(N=C1N)c1cc(-c3cccc(C#N)c3)ccc1CC21CCCc2ccccc2C1` (stereo not shown) [Compound 46] the same measures were less than 10 µM and 0.293 µM.
For `COC1CCC2(CC1)Cc1ccc(-c3cc(F)cc(Cl)c3)cc1C21CC(=O)N(C)C(N)=N1` (stereo not drawn) [Compound 42, 2″-amino-1′″-methyl-6-(3-chloro-5-fluorophenyl)-1″H-spiro[spiro[2,3-dihydro-indene-2,1′-(trans-4-methoxycyclohexane)]-1,4′-pyrimidin]-6″(5″H)-one], the IC50 in assay [1] was less than 0.1 µM; in assay [2], 0.173 µM.
With `CN1OC2(N=C1N)c1cc(-c3cccc(C#N)c3)ccc1CC21CCC(F)(F)CC1` (stereo not shown) [Compound 44], the figures for the half-inhibitory concentration (IC50) in assay [1] and in assay [2] (setting [3]) were less than 5 µM and 0.189 µM, respectively.
`CN1OC2(N=C1N)c1cc(-c3cccc(C(F)(F)F)c3)ccc1CC21CCc2ccccc2CC1` (stereo not shown) [Compound 39]: the IC50 in assay [1] is less than 10 µM; in assay [2] it was 0.158 µM.
Taken in the same sequence, the figures for `CN1OC2(N=C1N)c1cc(Br)ccc1CC21CCc2ccccc2CC1` (stereo not shown) [Compound 31] were less than 5 µM and 0.064 µM.
Taken in the same sequence, the figures for `CCO[C@H]1CC[C@]2(CC1)Cc1ccc(-c3cccc(C#N)c3)cc1C21N=C(N)N(C)O1` (stereo partly shown) [Compound 28] were less than 0.5 µM and 0.0417 µM.
As to `CN1OC2(N=C1N)c1cc(Cl)ccc1CC21CCc2ccccc2CC1` (stereo not shown) [Compound 30], the half-inhibitory concentration (IC50) is less than 5 µM in assay [1] and 0.0616 µM in assay [2] (setting [3]).
On to `COC1CCC2(CC1)Cc1ccc(-c3cccc(C(F)(F)F)c3)cc1C21N=C(N)N(C)O1` (stereo not shown) [Compound 20], for which the IC50 was less than 0.5 µM in assay [1] and 0.0187 µM in assay [2] (setting [3]).
`CN1C(=O)C2(N=C1N)c1cc(-c3cccc(C#N)c3)ccc1CC21CCc2ccccc2CC1` (stereo not shown) [Compound 29] registered a half-maximal inhibitory concentration (IC50) in assay [1] of less than 0.5 µM.
Take `CO[C@H]1CC2(Cc3ccc(-c4cccc(C#N)c4)cc3C23N=C(N)N(C)O3)C[C@H]1OC` (stereo partly shown) [Compound 57]: the IC50 in assay [1] is less than 5 µM; in assay [2] (setting [3]), 0.936 µM.
